Target: T1, Topo IV from S. aureus (ParE) (Staphylococcus aureus, UniProt P0C1S7)
T1 construct: purchased Inspiralis
Test: Topoisomerase IV inhibitory assay (Inspiralis kit)
Format: biochemical
Settings: staphylococcal Topo IV (ParE), mean of three experiments ± S.D.
Experimental: DNA gyrase (type II topoisomerase) and topoisomerase IV (Topo IV; ParE) introduce negative supercoils into DNA, utilizing ATP hydrolysis as a source of energy. They are considered essential bacterial regulatory enzymes that are absent in eukaryotes. Gyrase subunit B (Gyr-B) and Topo IV inhibitory activities were determined using the Inspiralis assay kit (Inspiralis®, UK) on streptavidin-coated 96-well microtiter plates (Thermo Scientific, Germany) according to the manufacturer’s protocols. The assay measures the ability of the tested compounds to inhibit the ATPase activity of both Gyr-B and ParE subunits. Briefly, the plates were hydrated with buffer (20 mM Tris-HCl with pH 7.6, 0.01% w/v BSA, 0.05% v/v Tween 20, 137 mM NaCl) and the biotinylated oligonucleotide was then immobilized. […] The produced fluorescence was measured using a microplate reader (BioTek Synergy, excitation: 485 nm, emission: 535 nm, Germany). […] The PK inhibitory activity of the tested compounds was determined according to the previously reported method. […] The PK activity was measured in a continuous assay coupled to lactate dehydrogenase (LDH) in which the change in absorbance at 340 nm owing to the oxidation of NADH was measured by the microplate reader. […] IC50 values in both assays were determined using seven concentrations of tested compounds. […]

IC50: 220 ± 10 nM
SMILES: CO[C@@H]1[C@@H](OC(N)=O)[C@@H](O)[C@H](Oc2ccc3c(O)c(NC(=O)c4ccc(O)c(CC=C(C)C)c4)c(=O)oc3c2C)OC1(C)C [Novobiocin]
